Assay results reported in PMC8286840, “Identifying SARS-CoV-2 antiviral compounds by screening for small molecule inhibitors of Nsp3 papain-like protease” (Biochemical Journal, 2021).
Where a name gives a salt, the structure may show the parent alone. Read-outs that look alike come from different tables or passages of the source. Where a SMILES comes first, the peptide text is derived from it.

Assays:
[1] = molecular target: T1, SARS-CoV-2 PLpro (nsp3 1564–1878) (Severe acute respiratory syndrome coronavirus 2, UniProt P0DTD1); assay: biochemical; design: FRET-quenched peptide (Pro3) cleavage by PLpro, 10 min pre-incubation, slope over 20 min, normalised to no-compound control; details: low concentration screen, read-out: % of control remaining
[2] = molecular target: T1, SARS-CoV-2 PLpro (nsp3 1564–1878); assay: biochemical; design: FRET-quenched peptide (Pro3) cleavage by PLpro, 10 min pre-incubation, slope over 20 min, normalised to no-compound control; details: high concentration screen, read-out: % of control remaining

In the case of CC(C)OC(=O)CCC/C=C\C[C@@H]1[C@@H](CC[C@@H](O)CCc2ccccc2)[C@H](O)C[C@@H]1O [Latanoprost], the remaining activity at 1.25 µM ([1]; Well no.=1769) is reported as 97.5%, the remaining activity at 1.25 µM ([1]; Well no.=6843) is reported as 100% and the remaining activity at 3.75 µM ([2]; Well no.=1769) is reported as 95.3%. It also gave a remaining activity at 3.75 µM ([2]; Well no.=6843) of 98.9%.

Compound COc1ccc(C[C@H]2c3cc(OC)c(OC)cc3CC[N+]2(C)C)cc1OC [Laudanosine methiodide] has a remaining activity at 1.25 µM ([1]; Well no.=3589) of 103% and a remaining activity at 3.75 µM ([2]; Well no.=3589) of 106%.

Work on CCCCCCCCCCCC(=O)O [Lauric acid] yielded a remaining activity at 1.25 µM ([1]; Well no.=7169) of 96.8% and a remaining activity at 3.75 µM ([2]; Well no.=7169) of 98.4%.

Work on O=C(O)c1cc(N(Cc2ccccc2O)Cc2cc(O)ccc2O)ccc1O [Lavendustin A] yielded a remaining activity at 1.25 µM ([1]; Well no.=3837) of 90.9% and a remaining activity at 3.75 µM ([2]; Well no.=3837) of 94.6%.

O=C(O)c1cc(N(Cc2ccccc2O)Cc2ccccc2O)ccc1O [Lavendustin B] gave a remaining activity at 1.25 µM ([1]; Well no.=3807) of 95.8% and a remaining activity at 3.75 µM ([2]; Well no.=3807) of 98%.

For Cc1oncc1C(=O)Nc1ccc(C(F)(F)F)cc1 [Leflunomide], the remaining activity at 1.25 µM ([1]; Well no.=787) was 104%, the remaining activity at 1.25 µM ([1]; Well no.=2268) was 96.5% and the remaining activity at 3.75 µM ([2]; Well no.=787) was 105%. The remaining activity at 3.75 µM ([2]; Well no.=2268) was 104%.

Compound Nc1cccc2c1CN(C1CCC(=O)NC1=O)C2=O (centres unmarked) [Lenalidomide (Revlimid)] has a remaining activity at 1.25 µM ([1]; Well no.=4838) of 97.7% and a remaining activity at 3.75 µM ([2]; Well no.=4838) of 97.8%.

O=C(O)CSc1nnc(Br)n1-c1ccc(C2CC2)c2ccccc12 [Lesinurad] was tested, and the remaining activity at 1.25 µM ([1]; Well no.=8158) was 102% and the remaining activity at 3.75 µM ([2]; Well no.=8158) was 104%.

Work on N#Cc1ccc(C(c2ccc(C#N)cc2)n2cncn2)cc1 [Letrozole] yielded a remaining activity at 1.25 µM ([1]; Well no.=1822) of 97.8% and a remaining activity at 3.75 µM ([2]; Well no.=1822) of 98.2%.

CC1=CC(=O)C2=C(C)CC[C@@H]3[C@H](OC(=O)[C@H]3C)[C@@H]12 [Leucomisine] was tested, and the remaining activity at 1.25 µM ([1]; Well no.=3248) was 94.5% and the remaining activity at 3.75 µM ([2]; Well no.=3248) was 96.8%.

With Nc1nc(=O)c2c([nH]1)NCC(CNc1ccc(C(=O)N[C@@H](CCC(=O)O)C(=O)O)cc1)N2C=O (some centres unmarked) [Leucovorin Calcium] the remaining activity at 1.25 µM ([1]; Well no.=4757) was 103% and the remaining activity at 3.75 µM ([2]; Well no.=4757) was 107%.

With CC(C)C[C@H](N)C(=O)N[C@@H](Cc1ccccc1)C(=O)O [Leucyl-phenylalanine] (H-Leu-Phe-OH) the remaining activity at 1.25 µM ([1]; Well no.=6291) was 104%, the remaining activity at 1.25 µM ([1]; Well no.=8754) was 87.2% and the remaining activity at 3.75 µM ([2]; Well no.=6291) was 102%. The remaining activity at 3.75 µM ([2]; Well no.=8754) was 87.4%.

CCCCCCCC[C@H](O)/C=C/C=C\C=C\[C@H](O)CCCC(=O)O [Leukotriene B3] was tested, and the remaining activity at 1.25 µM ([1]; Well no.=4421) was 102% and the remaining activity at 3.75 µM ([2]; Well no.=4421) was 101%.

CCCCC/C=C\C[C@@H](O)/C=C/C=C/C=C\[C@@H](O)CCCC(=O)O [Leukotriene B4] was tested, and the remaining activity at 1.25 µM ([1]; Well no.=4423) was 101% and the remaining activity at 3.75 µM ([2]; Well no.=4423) was 97.4%.

For CCCCC/C=C\C\C=C/C=C/C=C/[C@@H](SC[C@H](NC(=O)CC[C@H](N)C(=O)O)C(=O)NCC(=O)O)[C@@H](O)CCCC(=O)O [Leukotriene C4], the remaining activity at 1.25 µM ([1]; Well no.=4429) was 102% and the remaining activity at 3.75 µM ([2]; Well no.=4429) was 101%.

CCCCC/C=C\C\C=C/C=C/C=C/[C@@H](SC[C@H](N)C(=O)NCC(=O)O)[C@@H](O)CCCC(=O)O [Leukotriene D4] showed a remaining activity at 1.25 µM ([1]; Well no.=4431) of 100% and a remaining activity at 3.75 µM ([2]; Well no.=4431) of 98.6%.

CCCCC/C=C\C\C=C/C=C/C=C/[C@@H](SC[C@H](N)C(=O)O)[C@@H](O)CCCC(=O)O [Leukotriene E4] was tested, and the remaining activity at 1.25 µM ([1]; Well no.=4433) was 99.2% and the remaining activity at 3.75 µM ([2]; Well no.=4433) was 99.5%.

With CC(=O)N[C@@H](CC(C)C)C(=O)N[C@@H](CC(C)C)C(=O)N[C@H](C=O)CCCN=C(N)N [Leupeptin Hemisulfate] the remaining activity at 1.25 µM ([1]; Well no.=8716) was 92% and the remaining activity at 3.75 µM ([2]; Well no.=8716) was 91%.

CCNC(=O)[C@@H]1CCCN1C(=O)[C@H](CCCNC(=N)N)NC(=O)[C@H](CC(C)C)NC(=O)[C@@H](CC(C)C)NC(=O)[C@H](Cc1ccc(O)cc1)NC(=O)[C@H](CO)NC(=O)[C@H](Cc1c[nH]c2ccccc12)NC(=O)[C@H](Cc1c[nH]cn1)NC(=O)[C@@H]1CCC(=O)N1 [Leuprolide (Acetate)] was tested, and the remaining activity at 1.25 µM ([1]; Well no.=6469) was 104% and the remaining activity at 3.75 µM ([2]; Well no.=6469) was 104%.

In the case of C=CCN1CC[C@]23CCCC[C@H]2[C@H]1Cc1ccc(O)cc13 [Levallorphan tartrate], the remaining activity at 1.25 µM ([1]; Well no.=1012) is reported as 99.1% and the remaining activity at 3.75 µM ([2]; Well no.=1012) is reported as 99.9%.

Work on C=CCN1CC[C@]23CCCC[C@H]2[C@H]1Cc1ccc(O)cc13 [Levallorphan] yielded a remaining activity at 1.25 µM ([1]; Well no.=1702) of 106% and a remaining activity at 3.75 µM ([2]; Well no.=1702) of 103%.

c1ccc([C@H]2CN3CCSC3=N2)cc1 [Levamisole] showed a remaining activity at 1.25 µM ([1]; Well no.=2260) of 97.8% and a remaining activity at 3.75 µM ([2]; Well no.=2260) of 94.2%.

Compound CC[C@@H](C(N)=O)N1CCCC1=O [Levetiracetam] has a remaining activity at 1.25 µM ([1]; Well no.=1820) of 96.8% and a remaining activity at 3.75 µM ([2]; Well no.=1820) of 94.4%.

Work on CC(C)NC[C@H](O)COc1ccc(CCOCC2CC2)cc1 [Levobetaxolol (hydrochloride)] yielded a remaining activity at 1.25 µM ([1]; Well no.=6429) of 91.4% and a remaining activity at 3.75 µM ([2]; Well no.=6429) of 90.9%.

CCCCN1CCCC[C@H]1C(=O)Nc1c(C)cccc1C [Levobupivacaine hydrochloride] was tested, and the remaining activity at 1.25 µM ([1]; Well no.=6043) was 98.8% and the remaining activity at 3.75 µM ([2]; Well no.=6043) was 105%.

C[C@@H]1CN([C@H]2CC[C@](C#N)(c3ccc(F)cc3)CC2)CC[C@]1(C(=O)O)c1ccccc1 [Levocabastine.HCl] was tested, and the remaining activity at 1.25 µM ([1]; Well no.=2058) was 97.6% and the remaining activity at 3.75 µM ([2]; Well no.=2058) was 99.2%.

Compound N[C@@H](Cc1ccc(O)c(O)c1)C(=O)O [Levodopa] has a remaining activity at 1.25 µM ([1]; Well no.=2264) of 93.8% and a remaining activity at 3.75 µM ([2]; Well no.=2264) of 95.2%.

With OC[C@@H](O)CN1CCN(c2ccccc2)CC1 [Levodropropizine] the remaining activity at 1.25 µM ([1]; Well no.=6189) was 97.3% and the remaining activity at 3.75 µM ([2]; Well no.=6189) was 82.2%.

With C[C@H]1COc2c(N3CCN(C)CC3)c(F)cc3c(=O)c(C(=O)O)cn1c23 [Levofloxacin] the remaining activity at 1.25 µM ([1]; Well no.=2266) was 97.9% and the remaining activity at 3.75 µM ([2]; Well no.=2266) was 98.5%.

In the case of CN1c2c([nH]c(N)nc2=O)NC[C@@H]1CNc1ccc(C(=O)N[C@@H](CCC(=O)O)C(=O)O)cc1 [Levomefolic acid], the remaining activity at 1.25 µM ([1]; Well no.=7940) is reported as 101% and the remaining activity at 3.75 µM ([2]; Well no.=7940) is reported as 101%.

With C#C[C@]1(O)CC[C@H]2[C@@H]3CCC4=CC(=O)CC[C@@H]4[C@H]3CC[C@@]21CC [Levonorgestrel] the remaining activity at 1.25 µM ([1]; Well no.=2262) was 93.9% and the remaining activity at 3.75 µM ([2]; Well no.=2262) was 102%.

C[C@@H]1CC(=O)NN=C1c1ccc(NN=C(C#N)C#N)cc1 [Levosimendan] showed a remaining activity at 1.25 µM ([1]; Well no.=4902) of 101% and a remaining activity at 3.75 µM ([2]; Well no.=4902) of 97.8%.

With CCN1CCC[C@H]1CNC(=O)c1cc(S(N)(=O)=O)ccc1OC [Levosulpiride] the remaining activity at 1.25 µM ([1]; Well no.=6851) was 98% and the remaining activity at 3.75 µM ([2]; Well no.=6851) was 88.1%.

CC(=O)CCC(=O)O [Levulinic acid] was tested, and the remaining activity at 1.25 µM ([1]; Well no.=6545) was 101% and the remaining activity at 3.75 µM ([2]; Well no.=6545) was 98%.
